Assay [1] addresses isolated recombinant JAK1 kinase domain (Homo sapiens (Human), UniProt P23458). In words: JAK1 enzyme assay (Caliper LabChip, peptide phosphorylation). The following applies: isolated recombinant JAK1 kinase domain, 25 μM ATP. It counts as biochemical.
The target in assay [2] is isolated recombinant JAK2 kinase domain (Homo sapiens (Human), UniProt O60674). Briefly: JAK2 enzyme assay (Caliper LabChip, peptide phosphorylation). It counts as biochemical. The following applies: 25 μM ATP.
The test system of assay [3] is JAK1-dependent STAT6 phosphorylation downstream of IL-13 stimulation in BEAS-2B human bronchial epithelial cells. Briefly: JAK1 pathway assay in BEAS-2B cells (IL-13-pSTAT6, MSD). The following applies: read-out: IL13-pSTAT6 EC50 (uM)_BEAS-2B. It counts as cell-based. A digest of the protocol: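 Inhibitors were added to TF-1 cells (GM-CSF-starved, serum-free) for 30 min or to BEAS-2B cells (complete medium) for 1 hr at 37° C. MSD detected pSTAT6.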

In US9346815B2, “5-chloro-2-difluoromethoxyphenyl pyrazolopyrimidine compounds, compositions and methods of use thereof” (Genentech, Inc., priority 2014, dated 2016) one finds Ki and EC50 data, which are given here for 20 compounds.

Chain of isolated recombinant JAK1 kinase domain (P23458 875-1153): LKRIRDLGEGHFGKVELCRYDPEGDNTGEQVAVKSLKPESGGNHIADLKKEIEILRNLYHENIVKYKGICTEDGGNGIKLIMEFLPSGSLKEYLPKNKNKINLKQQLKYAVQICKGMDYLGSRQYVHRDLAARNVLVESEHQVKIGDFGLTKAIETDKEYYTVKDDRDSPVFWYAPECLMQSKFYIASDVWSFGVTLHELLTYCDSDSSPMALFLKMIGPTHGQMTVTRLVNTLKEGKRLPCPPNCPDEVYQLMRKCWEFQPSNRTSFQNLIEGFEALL
Chain of isolated recombinant JAK2 kinase domain (O60674 849-1124): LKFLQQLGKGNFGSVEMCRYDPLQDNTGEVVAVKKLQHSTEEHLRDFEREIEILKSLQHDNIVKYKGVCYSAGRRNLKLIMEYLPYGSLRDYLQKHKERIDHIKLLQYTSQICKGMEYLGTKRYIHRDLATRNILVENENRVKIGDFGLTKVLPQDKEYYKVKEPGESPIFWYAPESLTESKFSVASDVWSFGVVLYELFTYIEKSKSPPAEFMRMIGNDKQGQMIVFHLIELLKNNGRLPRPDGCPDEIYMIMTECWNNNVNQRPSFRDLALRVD

For orientation: Ki means the equilibrium dissociation constant of an inhibitor or competing ligand from its target. A word on the EC50: it is the concentration that produces a half-maximal response. `CC(C#N)CN(C)C1CCN(C(=O)Cn2cc(NC(=O)c3cnn4cccnc34)c(-c3cc(Cl)ccc3OC(F)F)n2)CC1` (stereo not drawn) [Example 413, N-(3-(5-chloro-2-(difluoromethoxy)phenyl)-1-(2-(4-((2-cyanopropyl) (methyl)amino)piperidin-1-yl)-2-oxoethyl)-1H-pyrazol-4-yl)pyrazolo[1,5-a]pyrimidine-3-carboxamide]: the Ki in assay [1] is 0.25 nM; in assay [2] it was 0.74 nM. The EC50 in assay [3] was determined as 0.0209 µM.
Turning to `CN(C)C(=O)CN1CCN(C(=O)Cn2cc(NC(=O)c3cnn4cccnc34)c(-c3cc(Cl)ccc3OC(F)F)n2)CC1` [Example 325, N-[3-[5-chloro-2-(difluoromethoxy)phenyl]-1-(2-[4-[(dimethylcarbamoyl)methyl]piperazin-1-yl]-2-oxoethyl)-1H-pyrazol-4-yl]pyrazolo[1,5-a]pyrimidine-3-carboxamide], the Ki worked out at 0.41 nM in assay [1] and 1.03 nM in assay [2]. Moreover, the EC50 in assay [3] was 0.0651 µM.
Regarding `O=C(Nc1cn(CCNCc2cccc(O)c2)nc1-c1cc(Cl)ccc1OC(F)F)c1cnn2cccnc12` [Example 327, N-[3-[5-chloro-2-(difluoromethoxy)phenyl]-1-(2-[[(3-hydroxyphenyl)methyl]amino]ethyl)-1H-pyrazol-4-yl]pyrazolo[1,5-a]pyrimidine-3-carboxamide], the Ki in assay [1] amounted to 0.25 nM; in assay [2] it was 0.2 nM. In addition, the concentration for a half-maximal effect (EC50) in assay [3] came out at 0.0077 µM.
In the case of `C[C@@H]1COCCN1C1CCN(C(=O)Cn2cc(NC(=O)c3cnn4cccnc34)c(-c3cc(Cl)ccc3OC(F)F)n2)CC1` [Example 449, N-(3-(5-chloro-2-(difluoromethoxy)phenyl)-1-(2-(4-((R)-3-methyl-morpholino)piperidin-1-yl)-2-oxoethyl)-1H-pyrazol-4-yl)pyrazolo[1,5-a]pyrimidine-3-carboxamide], the results for the inhibition constant Ki in assay [1] and in assay [2] were 0.38 nM and 1.1 nM, respectively. For the same compound, the half-maximal effective concentration (EC50) in assay [3] came out at 0.0136 µM.
`CN(CC1OCCO1)C1CCN(C(=O)Cn2cc(NC(=O)c3cnn4cccnc34)c(-c3cc(Cl)ccc3OC(F)F)n2)CC1` [Example 433, N-(1-(2-(4-(((1,3-dioxolan-2-yl)methyl)(methyl)amino)piperidin-1-yl)-2-oxoethyl)-3-(5-chloro-2-(difluoromethoxy)phenyl)-1H-pyrazol-4-yl)pyrazolo[1,5-a]pyrimidine-3-carboxamide]: the Ki in assay [1] amounted to 0.42 nM; in assay [2], 1.16 nM. Besides, the half-maximal effective concentration (EC50) in assay [3] turned out to be 0.036 µM.
`O=C(Nc1cn(CC(=O)N2CCN(CC3CC3)CC2)nc1-c1cc(Cl)ccc1OC(F)F)c1cnn2cccnc12` [Example 374, N-[3-[5-chloro-2-(difluoromethoxy)phenyl]-1-[2-[4-(cyclopropylmethyl)piperazin-1-yl]-2-oxoethyl]-1H-pyrazol-4-yl]pyrazolo[1,5-a]pyrimidine-3-carboxamide]: the Ki in assay [1] stood at 0.45 nM; in assay [2] it was 0.88 nM. Also, the EC50 in assay [3] came to 0.0295 µM.
Turning to `CN(C)C(=O)[C@@H]1CCCN1C1CCN(C(=O)Cn2cc(NC(=O)c3cnn4cccnc34)c(-c3cc(Cl)ccc3OC(F)F)n2)CC1` [Example 424, N-(3-(5-chloro-2-(difluoromethoxy)phenyl)-1-(2-(4-((S)-2-(dimethylcarbamoyl)pyrrolidin-1-yl)piperidin-1-yl)-2-oxoethyl)-1H-pyrazol-4-yl)pyrazolo[1,5-a]pyrimidine-3-carboxamide], the Ki came to 1.12 nM in assay [1] and 3.44 nM in assay [2]. Besides, the EC50 in assay [3] was found to be 0.0987 µM.
Turning to `O=C(Nc1cn(CC(=O)N2C[C@@H]3CCN[C@@H]3C2)nc1-c1cc(Cl)ccc1OC(F)F)c1cnn2cccnc12` [Example 444, N-(3-(5-chloro-2-(difluoromethoxy)phenyl)-1-(2-((3aS,6aS)-hexahydropyrrolo[3,4-b]pyrrol-5(1H)-yl)-2-oxoethyl)-1H-pyrazol-4-yl)pyrazolo[1,5-a]pyrimidine-3-carboxamide], the Ki in assay [1] stood at 0.76 nM; in assay [2] it was 0.89 nM. In assay [3], the EC50 amounted to 0.054 µM.
For the compound `CN(CC1(CC#N)CC1)C1CCN(C(=O)Cn2cc(NC(=O)c3cnn4cccnc34)c(-c3cc(Cl)ccc3OC(F)F)n2)CC1` [Example 435, N-(3-(5-chloro-2-(difluoromethoxy)phenyl)-1-(2-(4-(((1-(cyanomethyl)cyclopropyl)methyl)(methyl)amino)piperidin-1-yl)-2-oxoethyl)-1H-pyrazol-4-yl)pyrazolo[1,5-a]pyrimidine-3-carboxamide], the results for the Ki in assay [1] and in assay [2] were 0.34 nM and 0.98 nM, respectively. For the same compound, in assay [3], the EC50 turned out to be 0.0074 µM.
As to `O=C(Nc1cn(CC(=O)N2CCC(N3CC4CC(C3)O4)CC2)nc1-c1cc(Cl)ccc1OC(F)F)c1cnn2cccnc12` [Example 450, N-(1-(2-(4-(6-oxa-3-aza-bicyclo[3.1.1]heptan-3-yl)piperidin-1-yl)-2-oxoethyl)-3-(5-chloro-2-(difluoromethoxy)phenyl)-1H-pyrazol-4-yl)pyrazolo[1,5-a]pyrimidine-3-carboxamide], the Ki is 0.37 nM in assay [1] and 0.97 nM in assay [2]. Moreover, in assay [3], the EC50 came out at 0.0126 µM.
For the compound `CN1CCC(COC(=O)C2CCN(C(=O)Cn3cc(NC(=O)c4cnn5cccnc45)c(-c4cc(Cl)ccc4OC(F)F)n3)CC2)CC1` [Example 388, (1-methylpiperidin-4-yl)methyl 1-(2-[3-[5-chloro-2-(difluoromethoxy)phenyl]-4-[pyrazolo[1,5-a]pyrimidine-3-amido]-1H-pyrazol-1-yl]acetyl)piperidine-4-carboxylate], the results for the inhibitory constant (Ki) in assay [1] and in assay [2] were 0.51 nM and 2.42 nM, respectively. For the same compound, in assay [3], the EC50 amounted to 0.0241 µM.
The corresponding values for `CN1CCC(n2cc(Cn3cc(NC(=O)c4cnn5cccnc45)c(-c4cc(Cl)ccc4OC(F)F)n3)nn2)CC1` [Example 454, N-(3-(5-chloro-2-(difluoromethoxy)phenyl)-1-((1-(1-methylpiperidin-4-yl)-1H-1,2,3-triazol-4-yl)methyl)-1H-pyrazol-4-yl)pyrazolo[1,5-a]pyrimidine-3-carboxamide] are 0.4 nM, 0.23 nM and 0.0235 µM.
Taken in the same sequence, the figures for `C[C@H]1COCCN1C1CCN(C(=O)Cn2cc(NC(=O)c3cnn4cccnc34)c(-c3cc(Cl)ccc3OC(F)F)n2)CC1` [Example 451, N-(3-(5-chloro-2-(difluoromethoxy)phenyl)-1-(2-(4-((S)-3-methyl-morpholino)piperidin-1-yl)-2-oxoethyl)-1H-pyrazol-4-yl)pyrazolo[1,5-a]pyrimidine-3-carboxamide] were 0.45 nM, 1.56 nM and 0.0201 µM.
For the compound `CC(C)(C)OC(=O)N1CC[C@@H](O)[C@H](n2cc(NC(=O)c3cnn4cccnc34)c(-c3cc(Cl)ccc3OC(F)F)n2)C1` (single isomer, unassigned) [Example 356], the Ki was 2.64 nM in assay [1] and 2.37 nM in assay [2]. In addition, the EC50 in assay [3] is 0.0396 µM.
The corresponding values for `CC1CN(C(=O)Cn2cc(NC(=O)c3cnn4cccnc34)c(-c3cc(Cl)ccc3OC(F)F)n2)CCN1C` (stereo not drawn) [Example 376, N-[3-[5-chloro-2-(difluoromethoxy)phenyl]-1-[2-(3,4-dimethylpiperazin-1-yl)-2-oxoethyl]-1H-pyrazol-4-yl]pyrazolo[1,5-a]pyrimidine-3-carboxamide] are 0.66 nM, 1.03 nM and 0.0325 µM.
For the compound `CN[C@@H](C)Cn1cc(NC(=O)c2cnn3cccnc23)c(-c2cc(Cl)ccc2OC(F)F)n1` [Example 369, N-[3-[5-chloro-2-(difluoromethoxy)phenyl]-1-[(2S)-2-(methylamino)propyl]-1H-pyrazol-4-yl]pyrazolo[1,5-a]pyrimidine-3-carboxamide], the Ki in assay [1] is 1.13 nM; in assay [2], 1.25 nM. For the same compound, in assay [3], the EC50 came to 0.0093 µM.
With `CC(C)N1CCN(C(=O)Cn2cc(NC(=O)c3cnn4cccnc34)c(-c3cc(Cl)ccc3OC(F)F)n2)CC1` [Example 373, N-[3-[5-chloro-2-(difluoromethoxy)phenyl]-1-[2-oxo-2-[4-(propan-2-yl)piperazin-1-yl]ethyl]-1H-pyrazol-4-yl]pyrazolo[1,5-a]pyrimidine-3-carboxamide], the Ki in assay [1] came to 0.7 nM; in assay [2] it was 1.24 nM. In addition, in assay [3], the EC50 came to 0.0342 µM.
Taken in the same sequence, the figures for `COC(=O)CNCCn1cc(NC(=O)c2cnn3cccnc23)c(-c2cc(Cl)ccc2OC(F)F)n1` [Example 386, methyl 2-[(2-[3-[5-chloro-2-(difluoromethoxy)phenyl]-4-[pyrazolo[1,5-a]pyrimidine-3-amido]-1H-pyrazol-1-yl]ethyl)amino]acetate] were 1.06 nM, 0.56 nM and 0.0297 µM.
On to `CN1CCCC2CN(C(=O)Cn3cc(NC(=O)c4cnn5cccnc45)c(-c4cc(Cl)ccc4OC(F)F)n3)CC21` (stereo not drawn) [Example 440, N-(3-(5-chloro-2-(difluoromethoxy)phenyl)-1-(2-(1-methyl-octahydropyrrolo[3,4-b]pyridin-6-yl)-2-oxoethyl)-1H-pyrazol-4-yl)pyrazolo[1,5-a]pyrimidine-3-carboxamide], for which the inhibition constant Ki was 0.46 nM in assay [1] and 0.54 nM in assay [2]. Further, in assay [3], the EC50 turned out to be 0.0068 µM.
As to `COC(=O)[C@@H](N)CCn1cc(NC(=O)c2cnn3cccnc23)c(-c2cc(Cl)ccc2OC(F)F)n1` [Example 387, methyl (2S)-2-amino-4-[3-[5-chloro-2-(difluoromethoxy)phenyl]-4-[pyrazolo[1,5-a]pyrimidine-3-amido]-1H-pyrazol-1-yl]butanoate], the Ki in assay [1] came out at 1.24 nM; in assay [2] it was 0.46 nM. For the same compound, in assay [3], the EC50 was 0.0107 µM.
